Results on eleven molecules are retold here after PubChem BioAssay (NCI).

Test systems include SNB-78 CNS; RXF 393 renal; SF-295 CNS; EKVX NSCLC; OVCAR-5 ovarian; SW-620 colon; M14 melanoma; A549 NSCLC; DMS 114 small cell lung; U251 CNS.
Test in all cases: NCI anticancer screen, dose series, 48 h

≈ marks a conversion by molar mass, not a printed value. Where “and” joins values, the source holds several entries; their conditions need not be identical. Identical values can stand only once.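 Dose response: 5 concentrations. Exposure: 48 h. Format: 96-well plates. Endpoint: linear interpolation; highest concentration if not reached. Abbreviation: GI50, concentration required for 50% inhibition of growth. TGI: total growth inhibition.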 Where only a bound is given, the exact number is not on record here.

Take `O=C(CC1(O)C(=O)Nc2ccccc21)c1cccc(O)c1` (centres undefined): the TGI in the assay with SNB-78 CNS, in the assay with RXF 393 renal, in the assay with SF-295 CNS, in the assay on EKVX NSCLC, in the assay on OVCAR-5 ovarian and with SW-620 colon was above 100 µM throughout. Also, the TGI in the assay on M14 melanoma, with A549 NSCLC and in the assay on DMS 114 small cell lung was above 100 µM throughout.
Turning to `Nc1nc(N)c(CCCCc2ccc([N+](=O)[O-])cc2)c(N)n1`, the TGI in the assay on SNB-78 CNS, in the assay on RXF 393 renal, in the assay with U251 CNS, in the assay with SF-295 CNS, with EKVX NSCLC and in the assay on OVCAR-5 ovarian was above 100 µM each time. Moreover, the TGI in the assay with SW-620 colon, in the assay with M14 melanoma, with A549 NSCLC and in the assay with DMS 114 small cell lung was above 100 µM throughout.
Regarding `C=C1C(C)C2C(Cc3ccccc3)NC(=O)C23C(OC(C)=O)C=CC(C)(O)C(=O)C(C)C/C=C/C3C1O` (centres undefined), the TGI in the assay on SNB-78 CNS is 1.55 µM; with RXF 393 renal it was 1.55 µM and 1.04 µM; in the assay with U251 CNS, 5.47 µM and 53.2 µM; in the assay on SF-295 CNS, 30.5 µM and 62.3 µM; in the assay on EKVX NSCLC it was > 95.5 µM and 30 µM; with OVCAR-5 ovarian, above 500 µM. Further, the TGI in the assay on SW-620 colon was above 500 µM; in the assay with A549 NSCLC, above 500 µM; in the assay on DMS 114 small cell lung it was 65.6 µM and > 500 µM. Further, the GI50 was 60.4 nM with RXF 393 renal; 418 nM with SF-295 CNS; above 500000 nM with SW-620 colon; 3180 nM in the assay on M14 melanoma; 241 nM with A549 NSCLC; 11.1 µM in the assay with DMS 114 small cell lung.
`COc1cc(C2c3cc4c(cc3[C@@H](Nc3ccc(F)cc3)C3COC(=O)[C@H]23)OCO4)cc(OC)c1O` (some centres undefined): the TGI is 99.2 µM with SNB-78 CNS; 11.4 µM in the assay with RXF 393 renal; 8.9 µM in the assay on U251 CNS; 7.26 µM with SF-295 CNS; 12.5 µM with EKVX NSCLC; 37 µM in the assay with OVCAR-5 ovarian. In addition, the TGI came to 44.8 µM with SW-620 colon, 17.4 µM with M14 melanoma, 5.17 µM with A549 NSCLC and 9.63 µM with DMS 114 small cell lung. In addition, the GI50 is 451 nM with U251 CNS; 548 nM in the assay with SF-295 CNS; 859 nM with SW-620 colon; 795 nM in the assay with M14 melanoma; 264 nM in the assay with A549 NSCLC; 0.997 µM in the assay on DMS 114 small cell lung.
Take `COc1cc2c(cc1O)CCN[C@@]21CS[C@H]2c3c(OC(C)=O)c(C)c4c(c3C(COC1=O)N1C2C2NC(Cc3cc(C)c(OC)c(O)c32)[C@@H]1O)OCO4` (some centres undefined): the GI50 in the assay on SNB-78 CNS was 0.00037 ng/mL and 4.5 ng/mL; with RXF 393 renal it was 4.5 ng/mL; in the assay on U251 CNS, 4.5 ng/mL; in the assay on SF-295 CNS, 4.5 ng/mL; in the assay with EKVX NSCLC, 0.000588 ng/mL (≈ 0.000786 nM); in the assay on SW-620 colon, 4.5 ng/mL. The GI50 is 4.5 ng/mL in the assay on M14 melanoma, 0.000368 ng/mL in the assay with A549 NSCLC and 4.5 ng/mL in the assay with DMS 114 small cell lung. Also, the TGI in the assay with SNB-78 CNS was 0.932 µg/mL; in the assay with RXF 393 renal, < 10 nM and 1.9e-07 µg/mL and 0.0045 µg/mL; with U251 CNS it was < 10 nM and 0.28 µg/mL; in the assay with SF-295 CNS, 1.09 µM and 5.17 µg/mL; with EKVX NSCLC, < 10 nM and 1.3e-05 µg/mL; in the assay with OVCAR-5 ovarian it was 14.6 µM and 7.3e-07 µg/mL and 0.0045 µg/mL. The TGI is 7.33 µM and 4.98 µg/mL in the assay on SW-620 colon; < 10 nM and 1.8e-07 µg/mL and 0.0045 µg/mL in the assay with M14 melanoma; 10.4 µM with A549 NSCLC; 4.5 ng/mL in the assay with DMS 114 small cell lung.
In the case of `CC(=O)OC1(C(C)=O)CC2(c3ccccc3)OC1(c1ccccc1)c1ccccc12` (centres undefined), the TGI is above 100 µM with SNB-78 CNS; 60.2 µM in the assay on RXF 393 renal; above 100 µM in the assay with U251 CNS; above 100 µM with SF-295 CNS; above 100 µM in the assay with EKVX NSCLC; above 100 µM in the assay with OVCAR-5 ovarian. Besides, the TGI with SW-620 colon was above 100 µM; with M14 melanoma it was above 100 µM; with A549 NSCLC, above 100 µM; in the assay with DMS 114 small cell lung it was 12.5 µM.
In the case of `N#C/C(=C/c1ccc([N+](=O)[O-])o1)c1ccccc1`, the TGI with SNB-78 CNS, in the assay on RXF 393 renal, in the assay with U251 CNS, in the assay on SF-295 CNS, with EKVX NSCLC and with OVCAR-5 ovarian was above 100 µM each time. For the same molecule, the TGI in the assay with SW-620 colon, in the assay on M14 melanoma, with A549 NSCLC and in the assay with DMS 114 small cell lung was above 100 µM each time.
With `NC1(C(=O)O)CCC(C(=O)O)CC1` (centres undefined), the TGI in the assay on SNB-78 CNS, in the assay with RXF 393 renal, with U251 CNS, with SF-295 CNS, in the assay on EKVX NSCLC and in the assay with OVCAR-5 ovarian was above 100 µM throughout. Further, the TGI in the assay with SW-620 colon, in the assay on M14 melanoma, with A549 NSCLC and in the assay on DMS 114 small cell lung was above 100 µM in each case.
Regarding `N/N=C1/C(=O)N(c2ccc(Cl)cc2)C(=O)C(=O)C1c1nc2ccccc2s1` (centres undefined), the TGI with SNB-78 CNS, in the assay on RXF 393 renal, in the assay on U251 CNS, in the assay with SF-295 CNS, in the assay with EKVX NSCLC and in the assay on OVCAR-5 ovarian was above 100 µM each time. The TGI in the assay with SW-620 colon, in the assay on M14 melanoma, with A549 NSCLC and in the assay on DMS 114 small cell lung was above 100 µM in each case.
For `NN=C1/C(=C\c2ccccc2)CCC/C1=C/c1ccccc1`, the TGI in the assay with SNB-78 CNS was above 100 µM; in the assay on RXF 393 renal, above 100 µM; with U251 CNS, above 100 µM; with SF-295 CNS, above 100 µM; in the assay on EKVX NSCLC, 89.1 µM; with OVCAR-5 ovarian, above 100 µM. The TGI was above 100 µM with SW-620 colon, above 100 µM with M14 melanoma, above 100 µM in the assay on A549 NSCLC and 75.1 µM in the assay with DMS 114 small cell lung.
Take `CSCSCC(CO)NC(=O)/C=C/c1c(C)[nH]c(=O)[nH]c1=O` (centres undefined): the TGI in the assay with SNB-78 CNS, with RXF 393 renal, with U251 CNS, in the assay on SF-295 CNS, in the assay on EKVX NSCLC and in the assay on OVCAR-5 ovarian was above 100 µM each time. For the same molecule, the TGI in the assay on SW-620 colon, in the assay with M14 melanoma, in the assay with A549 NSCLC and with DMS 114 small cell lung was above 100 µM throughout.
